Source: PubChem BioAssay AID330 (DTP/NCI, 2004)
Values joined by “and” are separate entries in the source; they are usually repeats but may differ in a detail not shown here. Equal values may be shown once. Toxic doses and inconclusive results are not listed.

Test system: P388 leukemia ip, CD2F1 mice, survival T/C
Assay: NCI In Vivo Anticancer Drug Screen. Data for tumor model P388 Leukemia (intraperitoneal) in CD2F1 (CDF1) mice
Settings: endpoint: median survival time, higher = longer survival
Summary of the method: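 Mice carrying the transplanted tumor received test compound or vehicle. Survival was recorded in each group, and the value is the treated-group measurement divided by that of the vehicle-treated control group.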

[1] = dose: 50.0 mg/kg/injection, schedule: Q01DX009 (ip), vehicle: saline
[2] = dose: 100.0 mg/kg/injection, schedule: Q01DX009 (ip), vehicle: saline
[3] = dose: 200.0 mg/kg/injection, schedule: Q01DX009 (ip), vehicle: saline
[4] = dose: 100.0 mg/kg/injection, schedule: Q01DX009 (ip), vehicle: Klucel (hydroxypropylcellulose) (HPC)
[5] = dose: 50.0 mg/kg/injection, schedule: Q01DX009 (ip), vehicle: Klucel (hydroxypropylcellulose) (HPC)
[6] = dose: 200.0 mg/kg/injection, schedule: Q01DX009 (ip), vehicle: Klucel (hydroxypropylcellulose) (HPC)
[7] = dose: 50.0 mg/kg/injection, schedule: Q01DX005 (ip), vehicle: Klucel (hydroxypropylcellulose) (HPC)
[8] = dose: 100.0 mg/kg/injection, schedule: Q01DX005 (ip), vehicle: Klucel (hydroxypropylcellulose) (HPC)
[9] = dose: 100.0 mg/kg/injection, schedule: Q04DX003 (ip), vehicle: saline with Tween-80
[10] = dose: 200.0 mg/kg/injection, schedule: Q01DX005 (ip), vehicle: Klucel (hydroxypropylcellulose) (HPC)
[11] = dose: 200.0 mg/kg/injection, schedule: Q04DX003 (ip), vehicle: saline with Tween-80
[12] = dose: 400.0 mg/kg/injection, schedule: Q04DX003 (ip), vehicle: saline with Tween-80
[13] = dose: 100.0 mg/kg/injection, schedule: Q01DX009 (ip), vehicle: saline with Tween-80
[14] = dose: 200.0 mg/kg/injection, schedule: Q01DX009 (ip), vehicle: saline with Tween-80
[15] = dose: 60.0 mg/kg/injection, schedule: Q01DX005 (ip), vehicle: Klucel (hydroxypropylcellulose) (HPC)
[16] = dose: 120.0 mg/kg/injection, schedule: Q01DX005 (ip), vehicle: Klucel (hydroxypropylcellulose) (HPC)
[17] = dose: 50.0 mg/kg/injection, schedule: Q01DX009 (ip), vehicle: saline with Tween-80
[18] = dose: 50.0 mg/kg/injection, schedule: Q01DX005 (ip), vehicle: saline
[19] = dose: 100.0 mg/kg/injection, schedule: Q01DX005 (ip), vehicle: saline
[20] = dose: 200.0 mg/kg/injection, schedule: Q01DX005 (ip), vehicle: saline
[21] = dose: 240.0 mg/kg/injection, schedule: Q01DX005 (ip), vehicle: Klucel (hydroxypropylcellulose) (HPC)

## Cc1[nH]n(-c2ccc(Cl)cc2)c(=O)c1N=Nc1cccc(C(F)(F)F)c1
[1]
  T/C: 88 % of control
[2]
  T/C: 91 % of control
[3]
  T/C: 93 % of control

## Cc1cc(N(CCOS(C)(=O)=O)CCOS(C)(=O)=O)ccc1C=Nc1ccc(-c2csc(-c3ccccc3)n2)c(Cl)c1
dose: 6.25 mg/kg/injection, schedule: Q01DX009 (ip), vehicle: Klucel (hydroxypropylcellulose) (HPC)
  T/C: 110 % of control
dose: 12.5 mg/kg/injection, schedule: Q01DX009 (ip), vehicle: Klucel (hydroxypropylcellulose) (HPC)
  T/C: 122 % of control
[4]
  T/C: 98 % of control and 87 % of control

## CC(C)=CCC1(O)C(=O)c2ccccc2C1(O)C(=O)O (configuration not stated)
dose: 25.0 mg/kg/injection, schedule: Q01DX009 (ip), vehicle: Klucel (hydroxypropylcellulose) (HPC)
  T/C: 101 % of control
[5]
  T/C: 100 % of control
[4]
  T/C: 107 % of control
[6]
  T/C: 99 % of control

## O=CNC(CSSCC(NC=O)C(=O)O)C(=O)O (configuration not stated)
[7]
  T/C: 101 % of control
[8]
  T/C: 101 % of control
[9]
  T/C: 113 % of control
[10]
  T/C: 95 % of control
[11]
  T/C: 90 % of control
[12]
  T/C: 90 % of control

## CC1=NN(C(=O)c2ccc(Cl)cc2)C(=O)C1N=Nc1ccc(S(=O)(=O)Nc2ncccn2)cc1 (configuration not stated)
dose: 50.0 mg/kg/injection, schedule: Q01DX005 (ip), vehicle: saline with Tween-80
  T/C: 94 % of control
dose: 100.0 mg/kg/injection, schedule: Q01DX005 (ip), vehicle: saline with Tween-80
  T/C: 97 % of control
dose: 200.0 mg/kg/injection, schedule: Q01DX005 (ip), vehicle: saline with Tween-80
  T/C: 87 % of control

## CCCCCCCCCCCCCCCCCC[N+](C)(C)c1nc(Cl)nc(Cl)n1
dose: 25.0 mg/kg/injection, schedule: Q01DX009 (ip), vehicle: saline
  T/C: 100 % of control
[1]
  T/C: 91 % of control

## CCN(CCN1C(=O)COCC1=O)c1ccccc1
[9]
  T/C: 105 % of control
[11]
  T/C: 104 % of control
[12]
  T/C: 96 % of control

## O=C(C1=Cc2ccccc2OC1)N1CCN(c2ccccc2Cl)CC1
dose: 100.0 mg/kg/injection, schedule: Q04DX003 (ip), vehicle: Klucel (hydroxypropylcellulose) (HPC)
  T/C: 106 % of control
dose: 200.0 mg/kg/injection, schedule: Q04DX003 (ip), vehicle: Klucel (hydroxypropylcellulose) (HPC)
  T/C: 101 % of control
dose: 400.0 mg/kg/injection, schedule: Q04DX003 (ip), vehicle: Klucel (hydroxypropylcellulose) (HPC)
  T/C: 88 % of control

## CCOC(=O)/C(C#N)=C/C=C1/C=CC=CN1N=C(SC)SC
dose: 100.0 mg/kg/injection, schedule: Q01DX001 (ip), vehicle: saline with Tween-80
  T/C: 95 % of control
dose: 200.0 mg/kg/injection, schedule: Q01DX001 (ip), vehicle: saline with Tween-80
  T/C: 86 % of control
dose: 400.0 mg/kg/injection, schedule: Q01DX001 (ip), vehicle: saline with Tween-80
  T/C: 87 % of control

## C=C(C)C1CC=C(C)CC1 (configuration not stated)
[13]
  T/C: 95 % of control
[9]
  T/C: 100 % of control
[14]
  T/C: 104 % of control
[11]
  T/C: 104 % of control
dose: 400.0 mg/kg/injection, schedule: Q01DX009 (ip), vehicle: saline with Tween-80
  T/C: 114 % of control
[12]
  T/C: 109 % of control

## C1[Se]CC12C[Se]C2
dose: 20.0 mg/kg/injection, schedule: Q01DX009 (ip), vehicle: saline with Tween-80
  T/C: 105 % of control

## CN=C(NC)c1ccc(NC(=O)Nc2cccc(NC(=O)Nc3ccc(C(=NC)NC)cc3)c2)cc1
dose: 12.5 mg/kg/injection, schedule: Q01DX005 (ip), vehicle: saline with Tween-80
  T/C: 160 % of control and 177 % of control
dose: 25.0 mg/kg/injection, schedule: Q01DX005 (ip), vehicle: saline with Tween-80
  T/C: 195 % of control and 206 % of control

## NC(=O)c1ccc(NO)cc1
[1]
  T/C: 106 % of control
[2]
  T/C: 98 % of control
[3]
  T/C: 94 % of control

## CCCOn1nnc2cc(Cl)ccc21
dose: 6.25 mg/kg/injection, schedule: Q01DX009 (ip), vehicle: saline with Tween-80
  T/C: 102 % of control
dose: 12.5 mg/kg/injection, schedule: Q01DX009 (ip), vehicle: saline with Tween-80
  T/C: 96 % of control
dose: 25.0 mg/kg/injection, schedule: Q01DX009 (ip), vehicle: saline with Tween-80
  T/C: 99 % of control

## O=C1OI(OI2OC(=O)c3ccccc32)c2ccccc21
dose: 15.0 mg/kg/injection, schedule: Q01DX005 (ip), vehicle: Klucel (hydroxypropylcellulose) (HPC)
  T/C: 102 % of control and 116 % of control
dose: 30.0 mg/kg/injection, schedule: Q01DX005 (ip), vehicle: Klucel (hydroxypropylcellulose) (HPC)
  T/C: 104 % of control and 92 % of control
[15]
  T/C: 100 % of control and 101 % of control and 113 % of control
[16]
  T/C: 101 % of control and 113 % of control

## [O-][n+]1ccccc1[S][Sn]([Cl])([Cl])[S]c1cccc[n+]1[O-]
[17]
  T/C: 94 % of control
[13]
  T/C: 106 % of control
[14]
  T/C: 102 % of control

## CCN(CC)C(Cc1ccccc1)=NC(C)(C)C
[17]
  T/C: 94 % of control
[13]
  T/C: 88 % of control

## CCCCNC(=O)N1C2C3CCC(C)(OC3(C)C)C21 (configuration not stated)
[18]
  T/C: 101 % of control
[19]
  T/C: 101 % of control
[20]
  T/C: 102 % of control

## Nc1nc2ccc(Br)cc2s1
dose: 50.0 mg/kg/injection, schedule: Q01DX009 (ip), vehicle: suspension in saline
  T/C: 97 % of control
[2]
  T/C: 86 % of control
dose: 100.0 mg/kg/injection, schedule: Q01DX009 (ip), vehicle: suspension in saline
  T/C: 102 % of control

## COc1cc(O)c(O)cc1C(C)(C)C
dose: 22.5 mg/kg/injection, schedule: Q01DX005 (ip), vehicle: saline with Tween-80
  T/C: 106 % of control
dose: 45.0 mg/kg/injection, schedule: Q01DX005 (ip), vehicle: saline with Tween-80
  T/C: 110 % of control
dose: 90.0 mg/kg/injection, schedule: Q01DX005 (ip), vehicle: saline with Tween-80
  T/C: 97 % of control

## CC(=O)N/N=C(/C(=O)O)c1ccccc1
dose: 100.0 mg/kg/injection, schedule: Q04DX002 (ip), vehicle: Klucel (hydroxypropylcellulose) (HPC)
  T/C: 98 % of control
dose: 200.0 mg/kg/injection, schedule: Q04DX002 (ip), vehicle: Klucel (hydroxypropylcellulose) (HPC)
  T/C: 99 % of control
dose: 400.0 mg/kg/injection, schedule: Q04DX002 (ip), vehicle: Klucel (hydroxypropylcellulose) (HPC)
  T/C: 95 % of control

## Fc1cccc(Cl)c1C(Nc1nncs1)Nc1nncs1
[16]
  T/C: 171 % of control
[21]
  T/C: 187 % of control and 194 % of control

## N#CCSCC(NC(=O)c1ccccc1)C(=O)O (configuration not stated)
[18]
  T/C: 100 % of control
[19]
  T/C: 87 % of control
[20]
  T/C: 97 % of control

## O=C(Nc1cccc(C2=NCCCN2)c1)Nc1ccc(NC(=O)Nc2cccc(C3=NCCCN3)c2)c(Cl)c1
dose: 0.6 mg/kg/injection, schedule: Q04DX003 (ip), vehicle: saline
  T/C: 109 % of control
dose: 1.25 mg/kg/injection, schedule: Q04DX003 (ip), vehicle: saline
  T/C: 109 % of control
dose: 2.5 mg/kg/injection, schedule: Q04DX003 (ip), vehicle: saline
  T/C: 109 % of control
dose: 10.0 mg/kg/injection, schedule: Q04DX003 (ip), vehicle: saline with Tween-80
  T/C: 170 % of control
dose: 20.0 mg/kg/injection, schedule: Q04DX003 (ip), vehicle: saline
  T/C: 164 % of control
dose: 26.4 mg/kg/injection, schedule: Q04DX003 (ip), vehicle: saline with Tween-80
  T/C: 183 % of control
dose: 40.0 mg/kg/injection, schedule: Q04DX003 (ip), vehicle: saline
  T/C: 204 % of control

## O=C(/C=C(/SS/C(=C/C(=O)c1ccccc1)c1ccccc1)c1ccccc1)c1ccccc1
[5]
  T/C: 98 % of control
[4]
  T/C: 98 % of control
[6]
  T/C: 91 % of control

## COc1ccc(C2OC3=Nc4ccccc4NC3C2=O)cc1OC (configuration not stated)
[15]
  T/C: 107 % of control
[16]
  T/C: 105 % of control
[21]
  T/C: 100 % of control

## COc1cccc(C2OC3=C(Nc4ccccc4N3)C2=O)c1 (configuration not stated)
dose: 25.0 mg/kg/injection, schedule: Q01DX005 (ip), vehicle: Klucel (hydroxypropylcellulose) (HPC)
  T/C: 98 % of control
[7]
  T/C: 100 % of control
[15]
  T/C: 97 % of control
[8]
  T/C: 94 % of control
[16]
  T/C: 95 % of control
[10]
  T/C: 94 % of control
[21]
  T/C: 94 % of control
dose: 400.0 mg/kg/injection, schedule: Q01DX005 (ip), vehicle: Klucel (hydroxypropylcellulose) (HPC)
  T/C: 98 % of control
